{
  "source": "ChEMBL document CHEMBL3112501",
  "about": "“Design, synthesis and preliminary bioactivity studies of 1,2-dihydrobenzo[d]isothiazol-3-one-1,1-dioxide hydroxamic acid derivatives as novel histone deacetylase inhibitors” (Bioorg Med Chem, 2014)",
  "biological_target": "Histone deacetylase (HDAC1 and HDAC2) (Homo sapiens, UniProt Q13547+Q92769)",
  "test": "Inhibition of HDAC1/2 in human HeLa cell extracts using acetylated histone peptide as substrate after 30 mins",
  "type": "protein assay",
  "data": [
    {"compound": "O=C(CCCCCN1C(=O)c2ccc(NC(=O)Cc3ccccc3)cc2S1(=O)=O)NO", "values": [
      {"measurement": "IC50", "result": 244, "unit": "nM"}
    ]}
  ]
}
